Common to all, as to test: DTP human tumour cell line panel, 48 h
The subject of assay [1] is 786-0 renal.
Assay [2] relates to A498 renal.
The subject of assay [3] is A549 NSCLC.
Assay [4] has as its system ACHN renal.
Assay [5] concerns BT-549 breast.
Assay [6] deals with CAKI-1 renal.
In assay [7] the test system is CCRF-CEM leukemia.
Assay [8] has as its system COLO 205 colon.
For assay [9], the system named is DU-145 prostate.
The test system of assay [10] is EKVX NSCLC.
The test system of assay [11] is HCC-2998 colon.
In assay [12] the test system is HCT-116 colon.
The test system of assay [13] is HCT-15 colon.
Assay [14] deals with HL-60(TB) leukemia.
Assay [15] relates to HOP-62 NSCLC.
In assay [16] the test system is HOP-92 NSCLC.
Assay [17] has as its system HS 578T breast.
Assay [18] relates to HT29 colon.
The test system of assay [19] is IGROV1 ovarian.
In assay [20] the test system is K-562 leukemia.
In assay [21] the test system is KM12 colon.
Assay [22] deals with LOX IMVI melanoma.
Assay [23] relates to M14 melanoma.
Assay [24] deals with MALME-3M melanoma.
In assay [25] the test system is MCF7 breast.
Assay [26] deals with MDA-MB-231 breast.
Assay [27] relates to MDA-MB-435.
Assay [28] deals with MDA-MB-468 breast.
For assay [29], the system named is MOLT-4 leukemia.
For assay [30], the system named is NCI-H226 lung.
For assay [31], the system named is NCI-H23 lung.
For assay [32], the system named is NCI-H460 lung.
For assay [33], the system named is NCI-H522 lung.
Assay [34] deals with OVCAR-3 ovarian.
In assay [35] the test system is OVCAR-4 ovarian.
Assay [36] has as its system OVCAR-5 ovarian.
Assay [37] has as its system OVCAR-8 ovarian.
Assay [38] deals with PC-3 prostate.
For assay [39], the system named is RPMI-8226 leukemia.
For assay [40], the system named is RXF 393 renal.
In assay [41] the test system is SF-268 CNS.
Assay [42] has as its system SF-295 CNS.
The subject of assay [43] is SF-539 CNS.
In assay [44] the test system is SK-MEL-2 melanoma.
Assay [45] has as its system SK-MEL-28 melanoma.
In assay [46] the test system is SK-MEL-5 melanoma.
Assay [47] concerns SK-OV-3 ovarian.
Assay [48] relates to SN12C renal.
Assay [49] deals with SNB-19 CNS.
The subject of assay [50] is SR leukemia.
Assay [51] deals with SW-620 colon.
Assay [52] concerns T-47D breast.
The subject of assay [53] is TK-10 renal.
Assay [54] concerns U251 CNS.
Assay [55] deals with UACC-257 melanoma.
Assay [56] relates to UACC-62 melanoma.
The test system of assay [57] is UO-31 renal.

14 molecules from PubChem BioAssay (NCI) can be followed below.

In general, GI50 refers to the concentration at which growth is held to half of that of the control. Broadly, the TGI is the concentration giving total growth inhibition. Read a high TGI as lower sensitivity of the cells.

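Exposure lasted 48 hours, with cells grown in 96-well plates and compounds tested at five concentrations. GI50 = concentration required for 50% inhibition of growth. TGI: total growth inhibition.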 Bounds are passed on as bounds.

With `Clc1ccccc1Nc1nnc(-c2c[nH]c3ccccc23)o1`, the GI50 was 9.52 µM in assay [1]; 18.8 µM in assay [2]; 1.73 µM in [3]; 1.49 µM in [4]; 2.27 µM in [5]; 0.647 µM in assay [6]. In addition, the GI50 in assay [7] is 0.501 µM; in assay [8], 0.867 µM; in [9], 2.78 µM; in [10], 3.05 µM; in assay [11], 1.85 µM; in [12], 11.9 µM. Besides, the 50% growth inhibitory concentration (GI50) in [13] is 0.35 µM; in assay [14] it was 0.321 µM; in [15], 4.58 µM; in assay [16], 11.5 µM; in assay [17], 1.52 µM; in assay [18], 0.353 µM. Moreover, the GI50 in [19] is 0.429 µM; in [20], 0.308 µM; in assay [21], 1.57 µM; in assay [22], 0.618 µM; in assay [23], 0.71 µM; in assay [24] it was 0.498 µM. Further, the GI50 in [25] is 0.583 µM; in [26], 2.18 µM; in assay [27], 0.233 µM; in assay [28], 1.2 µM; in [29] it was 0.654 µM; in [30], 5.39 µM. Further, the GI50 is 2 µM in assay [31]; 0.787 µM in [32]; 0.305 µM in [33]; 0.43 µM in [34]; 22.7 µM in [35]; 4.33 µM in [36]. Also, the GI50 was 1.6 µM in assay [37]; 1.9 µM in [38]; 1.31 µM in [39]; 1.52 µM in assay [40]; 6.89 µM in [41]; 0.316 µM in assay [42]. In addition, the GI50 in [43] was 0.708 µM; in assay [44] it was 0.318 µM; in [45], 10.4 µM; in [46], 0.966 µM; in [47], 3.68 µM; in assay [48], 0.93 µM. Also, the GI50 in assay [49] is 0.721 µM; in assay [50] it was 0.387 µM; in assay [51], 0.479 µM; in assay [52], 4.1 µM; in assay [53], 8.09 µM; in assay [54], 0.505 µM. Moreover, the GI50 in assay [55] is 14.1 µM; in [56] it was 0.402 µM; in assay [57], 1.82 µM. The concentration for total growth inhibition (TGI) in assay [1] is 28.1 µM; in [2] it was 50.8 µM; in assay [3], over 100 µM; in [4] it was 37.5 µM; in assay [5], 34.6 µM; in [6], 33.2 µM. For the same molecule, the TGI in assay [7] was determined as 26.5 µM; in [8], 11.7 µM; in assay [9], 56.9 µM; in assay [10], 77.7 µM; in [11] it was 14.2 µM; in [12] it was 77.6 µM. In addition, the concentration for total growth inhibition (TGI) in assay [13] was found to be 23.9 µM; in assay [14] it was 4.56 µM; in assay [15], 63.5 µM; in [16], 54.6 µM; in assay [17] it was 20.6 µM; in assay [18] it was 10.3 µM. The concentration for total growth inhibition (TGI) is 33.5 µM in assay [19]; over 100 µM in assay [20]; 28.7 µM in assay [21]; 19.8 µM in assay [22]; 20.2 µM in [23]; 20.1 µM in [24]. The TGI was 21.6 µM in assay [25]; 23.5 µM in assay [26]; 0.778 µM in [27]; 4.9 µM in assay [28]; 23.2 µM in [29]; over 100 µM in [30]. The concentration for total growth inhibition (TGI) is 17.1 µM in [31]; 15.2 µM in assay [32]; 2.38 µM in assay [33]; 15 µM in [34]; over 100 µM in [35]; 31.9 µM in assay [36]. In addition, the TGI is 18.1 µM in assay [37]; 57.6 µM in assay [38]; over 100 µM in [39]; 11.1 µM in assay [40]; 51.7 µM in assay [41]; 10.2 µM in assay [42]. The TGI in assay [43] came to 3.24 µM; in assay [44] it was 1.06 µM; in assay [45] it was 27.3 µM; in assay [46], 7.39 µM; in [47], 74.9 µM; in [48] it was 21.7 µM. For the same molecule, the concentration for total growth inhibition (TGI) in [49] was 31.5 µM; in assay [50], over 100 µM; in assay [51], 29.1 µM; in assay [52], over 100 µM; in assay [53], over 100 µM; in [54], 17.5 µM. Besides, the concentration for total growth inhibition (TGI) in assay [55] came to 88.7 µM; in assay [56], 17.1 µM; in assay [57], 49.7 µM.

For `Cc1cccc(N=C2c3cc([N+](=O)[O-])ccc3-c3c2cc([N+](=O)[O-])cc3[N+](=O)[O-])c1`, in assay [28], the GI50 was 1.67 µM and the concentration for total growth inhibition (TGI) worked out at 3.32 µM.

Turning to `C#C[C@@]1(O)[C@@H](CO)O[C@@H](n2cc(F)c3c(N)ncnc32)[C@@H]1O`, in assay [28], the GI50 was 0.301 µM and the TGI worked out at 1.53 µM.

`C/C(=C\c1ccn(-c2ccc(N)cc2)n1)[C@@H]1C[C@@H]2O[C@]2(C)CCC[C@H](C)[C@H](O)[C@@H](C)C(=O)C(C)(C)[C@@H](O)CC(=O)O1`: in [28], the GI50 is 0.0391 µM and the TGI was 1.19 µM.

As to `Clc1ccc(CO/N=C(\Cn2ccnc2)c2ccc(Cl)cc2Cl)c(Cl)c1`, in assay [28], the GI50 was 1.59 µM and the total growth inhibition concentration (TGI) was 3.06 µM.

For the molecule `CCCCCc1ccc(S(=O)(=O)Nc2cc(-c3csc(NC(=O)CN4CCN(C)CC4)n3)ccc2N2CCN(C)CC2)cc1`, in assay [28], the GI50 is 0.901 µM and the concentration for total growth inhibition (TGI) was 2.02 µM.

In the case of `Cc1ccc2sc3c(NCCCNCCO)nc4ccccc4c3c(=O)c2c1`, in assay [28], the GI50 is 1.54 µM and the TGI stood at 3.16 µM.

As for `COC(=O)Nc1nc2ccc(Oc3ccc(NC(=O)Nc4cccc(Cl)c4)cc3)cc2[nH]1`, in assay [28], the concentration for 50% growth inhibition (GI50) is 0.269 µM and the TGI was determined as 2.2 µM.

As to `CN(C)CC1CCn2c(c(C3=C(c4cn(C)c5ccccc45)C(=O)NC3=O)c3ccccc32)C1` (centres undefined), in [28], the GI50 was 3.51 µM and the TGI amounted to 7.57 µM.

On to `CCOC(=O)c1c(Cl)c2c(n1Cc1cc(OC)cc(OC)c1)-c1oncc1CCC2`, for which, in [28], the GI50 was 0.526 µM and the TGI was over 100 µM.

Take `CN1CCN(Cc2ccc(NC(=O)c3cncc(C#Cc4c(N)ncc5cc(F)ccc45)c3)cc2C(F)(F)F)CC1`: in assay [28], the GI50 was 6.3 µM and the TGI was 15.4 µM.

For the molecule `C=C[C@]1(C)C=C2C(=O)[C@@]3(O)OC(=O)[C@@]4(CCCC(C)(C)[C@H]34)[C@@]2(O)CC1`, in assay [28], the GI50 is 0.414 µM and the TGI is 2 µM.

Turning to `CO[C@H]1CC[C@@]2(C)C(=CC[C@H]3[C@@H]4C[C@H](O)C[C@@]4(C)CC[C@@H]32)C1`, in [28], the GI50 was 2.41 µM and the total growth inhibition concentration (TGI) came out at 9.07 µM.

Take `COC(=O)[C@@H](C)C[C@H](Cc1ccccc1)NC(=O)c1csc([C@@H](C[C@H](C(C)C)N(C)C(=O)[C@@H](NC(=O)[C@H]2CCCCN2C)C(C)C)OC(C)=O)n1`: the total growth inhibition concentration (TGI) in assay [28] is over 25 µM.
